Measured values taken from patent US8802597B2, “Herbicidal pyrimidines” (E I du Pont de Nemours and Company, priority 2003, dated 2014).

Columns and labels:
Assay type in all cases: in vivo
[1] = system: (turf) bermudagrass (Cynodon dactylon); assay: Test F pre/postemergence
Description: (§1) Seeds or nutlets of plant species selected from (turf) bermudagrass (Cynodon dactylon), Kentucky bluegrass (Poa pratensis), bentgrass (Agrostis palustris), hard fescue (Festuca ovina), large crabgrass (Digitaria sanguinalis), goosegrass (Eleusine indica), dallisgrass (Paspalum dilatatum), annual bluegrass (Poa annua), common chickweed (Stellaria media), dandelion (Taraxacum officinale), white clover (Trifolium repens), and yellow nutsedge (Cyperus esculentus) were planted and treated preemergence with the test chemical formulated in a non-phytotoxic solvent mixture which included a surfactant.
(§2) At the same time, plants selected from these crop and weed species were treated with postemergence applications of the test chemical formulated in the same manner. Plants ranged in height from 2 to 18 cm (1- to 4-leaf stage) for postemergence treatments. Treated plants and controls were maintained in a greenhouse for 12 to 14 days, after which time all species were compared to controls and visually evaluated. Plant response ratings, summarized in Table F, are based on a scale of 0 to 100 where 0 is no effect and 100 is complete control. A dash (-) response means no test result.

[2] = system: Kentucky bluegrass (Poa pratensis); assay: Test F pre/postemergence
Description: as §1, §2

[3] = system: bentgrass (Agrostis palustris); assay: Test F pre/postemergence
Description: as §1, §2

[4] = system: dandelion (Taraxacum officinale); assay: Test F pre/postemergence
Description: as §1, §2

[5] = system: goosegrass (Eleusine indica); assay: Test F pre/postemergence
Description: as §1, §2

[6] = system: hard fescue (Festuca ovina); assay: Test F pre/postemergence
Description: as §1, §2

[7] = system: large crabgrass (Digitaria sanguinalis); assay: Test F pre/postemergence
Description: as §1, §2

[8] = system: barnyardgrass (ECHCG; Echinochloa crus-galli (L.) Beauv.); assay: Test H mixtures of compound 1 with diflufenzopyr; settings: foliage spray
Description: (§3) This test evaluated the effect of mixtures of compound 1 with diflufenzopyr on several plant species. Seeds of test plants consisting of large crabgrass (DIGSA, Digitaria sanguinalis (L.) Scop.), lambsquarters (CHEAL, Chenopodium album L.), redroot pigweed (AMARE, Amaranthus retroflexus L.), cocklebur (XANST, Xanthium strumarium L.), barnyardgrass (ECHCG; Echinochloa crus-galli (L.) Beauv.), corn (ZEAMD, Zea mays L. cv. ‘Pioneer 33G26’), scarlet (red) morningglory (IPOCO, Ipomoea coccinea L.), giant foxtail (SETFA, Setaria faberi Herrm.) and velvetleaf (ABUTH, Abutilon theophrasti Medik.) were planted in pots containing Redi-Earth® planting medium (Scotts Company, 14111 Scottslawn Road, Marysville, Ohio 43041) comprising spaghnum peat moss, vermiculite, wetting agent and starter nutrients. Seeds of small-seeded species were planted about 1 cm deep; larger seeds were planted about 2.5 cm deep. Plants were grown in a greenhouse using supplemental lighting to maintain a photoperiod of about 14 hours; daytime and nighttime temperatures were about 25-30° C. and 22-25° C., respectively. Balanced fertilizer was applied through the watering system. The plants were grown for 7 to 11 days so that at time of treatment the plants ranged in height from 2 to 18 cm (1- to 4-leaf stage). Treatments consisted of Compound 1 and diflufenzopyr alone and in combination, suspended or dissolved in an aqueous solvent comprising glycerin and Tween nonionic surfactant and applied as a foliage spray using a volume of 541 L/ha. Each treatment was replicated four times. […] Treated plants and controls were maintained in the greenhouse and watered as needed with care to not wet the foliage for the first 24 hours after treatment. The effects on the plants approximately 3 weeks after treatment were visually compared to untreated controls. Plant response ratings were calculated as the means of the four replicates, based on a scale of 0 to 100 where 0 is no effect and 100 is complete control. Colby's Equation was used to determine the herbicidal effects expected from the mixtures. Colby's Equation (Colby, S. R. “Calculating Synergistic and Antagonistic Responses of Herbicide Combinations,” Weeds, 15(1), pp 20-22 (1967)) calculates the expected additive effect of herbicidal mixtures, and for two active ingredients is of the form: Pa+b=Pa+Pb−(PaPb/100) wherein Pa+b is the percentage effect of the mixture expected from additive contribution of the individual components, • Pa is the observed percentage effect of the first active ingredient at the same use rate as in the mixture, and • Pb is the observed percentage effect of the second active ingredient at the same use rate as in the mixture.

[9] = system: redroot pigweed (AMARE, Amaranthus retroflexus L.); assay: Test H mixtures of compound 1 with diflufenzopyr; settings: foliage spray
Description: as §3

With `CCOC(=O)c1nc(C2CC2)nc(N)c1Br` [Compound 1, ethyl 6-amino-5-bromo-2-cyclopropyl-4-pyrimidinecarboxylate] the “Plant response rating (0 to 100 scale)” value ([1]; Postemergence, 31 g ai/ha) was 0, the “Plant response rating (0 to 100 scale)” value ([1]; Postemergence, 62 g ai/ha) was 20 and the “Plant response rating (0 to 100 scale)” value ([1]; Postemergence, 125 g ai/ha) was 40. The “Plant response rating (0 to 100 scale)” value ([1]; Postemergence, 250 g ai/ha) was 50, the “Plant response rating (0 to 100 scale)” value ([1]; Postemergence, 500 g ai/ha) was 70 and the “Plant response rating (0 to 100 scale)” value ([1]; Preemergence, 31 g ai/ha) was 10. For the same compound, the “Plant response rating (0 to 100 scale)” value ([1]; Preemergence, 62 g ai/ha) was 40, the “Plant response rating (0 to 100 scale)” value ([1]; Preemergence, 125 g ai/ha) was 50 and the “Plant response rating (0 to 100 scale)” value ([1]; Preemergence, 250 g ai/ha) was 80. The “Plant response rating (0 to 100 scale)” value ([1]; Preemergence, 500 g ai/ha) was 90, the “Plant response rating (0 to 100 scale)” value ([2]; Postemergence, 31 g ai/ha) was 20 and the “Plant response rating (0 to 100 scale)” value ([2]; Postemergence, 62 g ai/ha) was 0. For the same compound, the “Plant response rating (0 to 100 scale)” value ([2]; Postemergence, 125 g ai/ha) was 0, the “Plant response rating (0 to 100 scale)” value ([2]; Postemergence, 250 g ai/ha) was 0 and the “Plant response rating (0 to 100 scale)” value ([2]; Postemergence, 500 g ai/ha) was 30. For the same compound, the “Plant response rating (0 to 100 scale)” value ([2]; Preemergence, 31 g ai/ha) was 0, the “Plant response rating (0 to 100 scale)” value ([2]; Preemergence, 62 g ai/ha) was 30 and the “Plant response rating (0 to 100 scale)” value ([2]; Preemergence, 125 g ai/ha) was 30. For the same compound, the “Plant response rating (0 to 100 scale)” value ([2]; Preemergence, 250 g ai/ha) was 40, the “Plant response rating (0 to 100 scale)” value ([2]; Preemergence, 500 g ai/ha) was 80 and the “Plant response rating (0 to 100 scale)” value ([3]; Postemergence, 31 g ai/ha) was 0. The “Plant response rating (0 to 100 scale)” value ([3]; Postemergence, 62 g ai/ha) was 30, the “Plant response rating (0 to 100 scale)” value ([3]; Postemergence, 125 g ai/ha) was 50 and the “Plant response rating (0 to 100 scale)” value ([3]; Postemergence, 250 g ai/ha) was 50. The “Plant response rating (0 to 100 scale)” value ([3]; Postemergence, 500 g ai/ha) was 70, the “Plant response rating (0 to 100 scale)” value ([3]; Preemergence, 31 g ai/ha) was 50 and the “Plant response rating (0 to 100 scale)” value ([3]; Preemergence, 62 g ai/ha) was 60. For the same compound, the “Plant response rating (0 to 100 scale)” value ([3]; Preemergence, 125 g ai/ha) was 60, the “Plant response rating (0 to 100 scale)” value ([3]; Preemergence, 250 g ai/ha) was 90 and the “Plant response rating (0 to 100 scale)” value ([3]; Preemergence, 500 g ai/ha) was 100. For the same compound, the “Plant response rating (0 to 100 scale)” value ([4]; Postemergence, 31 g ai/ha) was 50, the “Plant response rating (0 to 100 scale)” value ([4]; Postemergence, 62 g ai/ha) was 75 and the “Plant response rating (0 to 100 scale)” value ([4]; Postemergence, 125 g ai/ha) was 75. The “Plant response rating (0 to 100 scale)” value ([4]; Postemergence, 250 g ai/ha) was 85, the “Plant response rating (0 to 100 scale)” value ([4]; Postemergence, 500 g ai/ha) was 95 and the “Plant response rating (0 to 100 scale)” value ([4]; Preemergence, 31 g ai/ha) was 35. The “Plant response rating (0 to 100 scale)” value ([4]; Preemergence, 62 g ai/ha) was 95, the “Plant response rating (0 to 100 scale)” value ([4]; Preemergence, 125 g ai/ha) was 100 and the “Plant response rating (0 to 100 scale)” value ([4]; Preemergence, 250 g ai/ha) was 100. For the same compound, the “Plant response rating (0 to 100 scale)” value ([4]; Preemergence, 500 g ai/ha) was 100, the “Plant response rating (0 to 100 scale)” value ([5]; Postemergence, 31 g ai/ha) was 5 and the “Plant response rating (0 to 100 scale)” value ([5]; Postemergence, 62 g ai/ha) was 10. The “Plant response rating (0 to 100 scale)” value ([5]; Postemergence, 125 g ai/ha) was 35, the “Plant response rating (0 to 100 scale)” value ([5]; Postemergence, 250 g ai/ha) was 40 and the “Plant response rating (0 to 100 scale)” value ([5]; Postemergence, 500 g ai/ha) was 50. For the same compound, the “Plant response rating (0 to 100 scale)” value ([5]; Preemergence, 31 g ai/ha) was 30, the “Plant response rating (0 to 100 scale)” value ([5]; Preemergence, 62 g ai/ha) was 40 and the “Plant response rating (0 to 100 scale)” value ([5]; Preemergence, 125 g ai/ha) was 30. The “Plant response rating (0 to 100 scale)” value ([5]; Preemergence, 250 g ai/ha) was 65, the “Plant response rating (0 to 100 scale)” value ([5]; Preemergence, 500 g ai/ha) was 85 and the “Plant response rating (0 to 100 scale)” value ([6]; Postemergence, 31 g ai/ha) was 0. The “Plant response rating (0 to 100 scale)” value ([6]; Postemergence, 62 g ai/ha) was 0, the “Plant response rating (0 to 100 scale)” value ([6]; Postemergence, 125 g ai/ha) was 0 and the “Plant response rating (0 to 100 scale)” value ([6]; Postemergence, 250 g ai/ha) was 0. The “Plant response rating (0 to 100 scale)” value ([6]; Postemergence, 500 g ai/ha) was 0, the “Plant response rating (0 to 100 scale)” value ([6]; Preemergence, 31 g ai/ha) was 50 and the “Plant response rating (0 to 100 scale)” value ([6]; Preemergence, 62 g ai/ha) was 60. The “Plant response rating (0 to 100 scale)” value ([6]; Preemergence, 125 g ai/ha) was 60, the “Plant response rating (0 to 100 scale)” value ([6]; Preemergence, 250 g ai/ha) was 60 and the “Plant response rating (0 to 100 scale)” value ([6]; Preemergence, 500 g ai/ha) was 90. For the same compound, the “Plant response rating (0 to 100 scale)” value ([7]; Postemergence, 31 g ai/ha) was 0, the “Plant response rating (0 to 100 scale)” value ([7]; Postemergence, 62 g ai/ha) was 45 and the “Plant response rating (0 to 100 scale)” value ([7]; Postemergence, 125 g ai/ha) was 70. For the same compound, the “Plant response rating (0 to 100 scale)” value ([7]; Postemergence, 250 g ai/ha) was 75, the “Plant response rating (0 to 100 scale)” value ([7]; Postemergence, 500 g ai/ha) was 90 and the “Plant response rating (0 to 100 scale)” value ([7]; Preemergence, 31 g ai/ha) was 15. For the same compound, the “Plant response rating (0 to 100 scale)” value ([7]; Preemergence, 62 g ai/ha) was 40, the “Plant response rating (0 to 100 scale)” value ([7]; Preemergence, 125 g ai/ha) was 85 and the “Plant response rating (0 to 100 scale)” value ([7]; Preemergence, 250 g ai/ha) was 95. For the same compound, the “Plant response rating (0 to 100 scale)” value ([7]; Preemergence, 500 g ai/ha) was 100, the “Obsd. observed effect (0 to 100 scale)” value ([8]; Cmpd 1 31 g a.i./ha) was 25 and the “Obsd. observed effect (0 to 100 scale)” value ([8]; Cmpd 1 62 g a.i./ha) was 42. The “Obsd. observed effect (0 to 100 scale)” value ([8]; Cmpd 1 125 g a.i./ha) was 90, the “Obsd. observed effect (0 to 100 scale)” value ([9]; Cmpd 1 31 g a.i./ha) was 91 and the “Obsd. observed effect (0 to 100 scale)” value ([9]; Cmpd 1 62 g a.i./ha) was 97. The “Obsd. observed effect (0 to 100 scale)” value ([9]; Cmpd 1 125 g a.i./ha) was 100.
